This passage reports IC50 results from patent US9085555B2, “Complement pathway modulators and uses thereof” (priority 2011, dated 2015).

Counter-ions that a name gives are not always drawn.

The target in the first test is Factor D (Homo sapiens (Human), UniProt P00746). The test can be described thus: biochemical. It counts as biochemical.
Sequence of Factor D (P00746 26-253): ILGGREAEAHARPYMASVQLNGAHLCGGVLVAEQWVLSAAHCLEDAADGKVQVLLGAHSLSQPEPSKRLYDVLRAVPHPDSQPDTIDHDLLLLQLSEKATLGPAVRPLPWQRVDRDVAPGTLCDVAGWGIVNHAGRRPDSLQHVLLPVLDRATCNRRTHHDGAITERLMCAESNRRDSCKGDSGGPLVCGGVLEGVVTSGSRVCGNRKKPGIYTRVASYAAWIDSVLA
Settings: not given
`NC(=O)n1cc(NC(=O)N2C[C@@H]3C[C@@H]3[C@H]2C(=O)NCc2cccc(Cl)c2F)c2cc(OCCO)ccc21` (relative stereo) [Example 382, 1S*,2S*,5R*)-3-Aza-bicyclo[3.1.0]hexane-2,3-dicarboxylic acid 3-{[1-carbamoyl-5-(2-hydroxy-ethoxy)-1H-indol-3-yl]-amide}2-(3-chloro-2-fluoro-benzylamide] showed a half-maximal inhibitory concentration (IC50) of 184 nM.

In the case of `NC(=O)n1cc(CC(=O)N2C[C@@H](N)C[C@H]2C(=O)NCc2cccc(Cl)c2F)c2ccccc21` [Example 468, 3-{2-[(2S,4S)-4-Amino-2-(3-chloro-2-fluoro-benzylcarbamoyl)-pyrrolidin-1-yl]-2-oxo-ethyl}-indole-1-carboxylic acid amide], half-maximal inhibition (IC50) was put at 350 nM.

Still in this test, the particulars now being: read-out: IC50.
For `NC(=O)n1cc(NC(=O)N2CC[C@H](N)[C@H]2C(=O)NCc2cccc(Cl)c2)c2ccccc21` [Example 421, 2S,3S)-3-Amino-pyrrolidine-1,2-dicarboxylic acid 1-[(1-carbamoyl-1H-indol-3-yl)-amide]2-(3-chloro-benzylamide], the IC50 is 9300 nM.

For `COCCOc1ccc2c(c1)c(NC(=O)N1C[C@](C)(F)C[C@H]1C(=O)NCc1cccc(Cl)c1F)cn2C(N)=O` [Example 132, (2S,4R)-4-Fluoro-methyl-pyrrolidine-1,2-dicarboxylic acid 1-{[1-carbamoyl-5-(2-methoxy-ethoxy)-1H-indol-3-yl]-amide} 2-(3-chloro-2-fluoro-benzylamide)], the IC50 was 18 nM.

As to `CC(=O)c1nn(CC(=O)N2[C@@H]3C[C@@H]3C[C@H]2C(=O)Nc2cccc(Br)n2)c2ccc(OCc3ncccn3)cc12` [Example 748, (1R,3S,5R)-2-{2-[3-Acetyl-5-(pyrimidin-2-ylmethoxy)-indazol-1-yl]-acetyl}-2-aza-bicyclo[3.1.0]hexane-3-carboxylic acid (6-bromo-pyridin-2-yl)-amide], the IC50 stood at 4 nM.

Turning to `CC(=O)c1cn(CC(=O)N2[C@@H]3C[C@@H]3C[C@H]2C(=O)NCc2cccc(Cl)c2F)c2cc(OCc3nn[nH]n3)ccc12` [Example 587, (1R,3S,5R)-2-{2-[3-Acetyl-6-(1H-tetrazol-5-ylmethoxy)-indol-1-yl]-acetyl}-2-aza-bicyclo[3.1.0]hexane-3-carboxylic acid 3-chloro-2-fluoro-benzylamide], the IC50 turned out to be 79 nM.

For the molecule `C[C@@H]1CCN(C(=O)Nc2cn(C(N)=O)c3ccccc23)[C@@H]1C(=O)NCc1cccc(Cl)c1F` [Example 126, (2S,3R)-3-Methyl-pyrrolidine-1,2-dicarboxylic acid 1-[(1-carbamoyl-1H-indol-3-yl)-amide] 2-(3-chloro-2-fluoro-benzylamide)], the half-maximal inhibitory concentration (IC50) is 100 nM.

For the molecule `COC1CCN(Cc2cc(Cl)c(F)c(CNC(=O)[C@@H]3C[C@@H](F)CN3C(=O)Nc3cn(C(N)=O)c4ccccc34)c2)CC1` [Example 20, (2S,4R)-4-Fluoro-pyrrolidine-1,2-dicarboxylic acid 1-[(1-carbamoyl-1H-indol-3-yl)-amide] 2-(3-chloro-2-fluoro-5-(4-methoxy-piperidin-1-ylmethyl)-benzylamide]], the IC50 was 1130 nM.

With `NC(=O)c1cn(CC(=O)N2C[C@H](F)C[C@H]2C(=O)NCc2cccc(Cl)c2F)c2ccc(O)cc12` [Example 577, 1-{2-[(2S,4R)-2-(3-Chloro-2-fluoro-benzylcarbamoyl)-4-fluoro-pyrrolidin-1-yl]-2-oxo-ethyl}-5-hydroxy-1H-indole-3-carboxylic acid amide], the 50% inhibitory concentration (IC50) is 71 nM.

With `CC(=O)c1nn(CC(=O)N2[C@@H]3C[C@@H]3C[C@H]2C(=O)Nc2cccc(OC(F)(F)F)c2F)c2ncccc12` [Example 711, (1R,3S,5R)-2-[2-(3-Acetyl-pyrazolo[3,4-b]pyridin-1-yl)-acetyl]-2-aza-bicyclo[3.1.0]hexane-3-carboxylic acid (2-fluoro-3-trifluoromethoxy-phenyl)-amide], the 50% inhibitory concentration (IC50) turned out to be 71 nM.

As to `CO[C@H]1[C@@H](C(=O)Nc2cccc(OC(F)(F)F)c2F)N(C(=O)Cn2nc(C(N)=O)c3ccccc32)C[C@@H]1F` [Example 628, 1-{2-[(2S,3S,4S)-4-Fluoro-2-(2-fluoro-3-trifluoromethoxy-phenylcarbamoyl)-3-methoxy-pyrrolidin-1-yl]-2-oxo-ethyl}-1H-indazole-3-carboxylic acid amide], the concentration for half-maximal inhibition (IC50) came out at 38 nM.

As for `CC[C@@H]1CC[C@@H](C(=O)Nc2cccc(OC(F)(F)F)c2)N1C(=O)Nc1cn(C(N)=O)c2ccccc12` [Example 338, (2S,5R)-5-Ethyl-pyrrolidine-1,2-dicarboxylic acid 1-[(1-carbamoyl-1H-indol-3-yl)-amide]2-[(3-trifluoromthoxy-phenyl)-amide]], the IC50 was determined as 18900 nM.

Regarding `O=C(NCc1cccc(Cl)c1F)[C@@H]1C[C@@H](F)CN1C(=O)Cn1cc(C(=O)C(F)(F)F)c2ccccc21` [Example 561, (2S,4R)-4-Fluoro-1-{2-[3-(2,2,2-trifluoro-acetyl)-indol-1-yl]-acetyl}-pyrrolidine-2-carboxylic acid 3-chloro-2-fluoro-benzylamide], the IC50 was 14 nM.

Take `COC[C@@H](NC(=O)[C@@H]1C[C@H]2C[C@H]2N1C(=O)Cn1cc(C(C)=O)c2ccccc21)c1cccc(Cl)c1F` [Example 568, (1R,3S,5R)-2-[2-(3-Acetyl-indol-1-yl)-acetyl]-2-aza-bicyclo[3.1.0]hexane-3-carboxylic acid [(S)-1-(3-chloro-2-fluoro-phenyl)-2-methoxy-ethyl]-amide]: the IC50 came to 121 nM.

On to `CC(=O)c1cn(CC(=O)N2C[C@H](F)[C@@H](OCCN(C)C)[C@H]2C(=O)NCc2cccc(Cl)c2F)c2ccccc12` [Example 634, (2S,3S,4S)-1-[2-(3-Acetyl-indol-1-yl)-acetyl]-3-(2-dimethylamino-ethoxy)-4-fluoro-pyrrolidine-2-carboxylic acid 3-chloro-2-fluoro-benzylamide formate], for which the concentration for half-maximal inhibition (IC50) turned out to be 53 nM.

As to `CCc1cc2c(C(N)=O)nn(CC(=O)N3C[C@H](F)C[C@H]3C(=O)Nc3cccc(OC(F)(F)F)c3F)c2cn1` [Example 715, 5-Ethyl-1-{2-[(2S,4R)-4-fluoro-2-(2-fluoro-3-trifluoromethoxy-phenylcarbamoyl)-pyrrolidin-1-yl]-2-oxo-ethyl}-1H-pyrazolo[3,4-c]pyridine-3-carboxylic acid amide], the half-maximal inhibitory concentration (IC50) worked out at 27 nM.

As for `C[C@@H](NC(=O)[C@@H]1C[C@H]2C[C@H]2N1C(=O)Cn1nc(C(N)=O)c2cc(C3CC3)ncc21)c1cccc(Cl)c1F` [Example 701, 1-(2-{(1R,3S,5R)-3-[(R)-1-(3-Chloro-2-fluoro-phenyl)-ethylcarbamoyl]-2-aza-bicyclo[3.1.0]hex-2-yl}-2-oxo-ethyl)-5-cyclopropyl-1H-pyrazolo[3,4-c]pyridine-3-carboxylic acid amide], the IC50 is 15 nM.

`NC(=O)n1cc(NC(=O)N2CC[C@H](F)[C@H]2C(=O)NCc2cccc(Cl)c2F)c2ccccc21` [Example 208, (2R,3S)-3-Fluoro-pyrrolidine-1,2-dicarboxylic acid 1-[(1-carbamoyl-1H-indol-3-yl)-amide] 2-(3-chloro-2-fluoro-benzylamide)]: the IC50 is 29 nM.

Take `CO[C@H]1[C@@H](C(=O)NCc2cccc(Cl)c2F)N(C(=O)Cn2nc(C(N)=O)c3cnccc32)C[C@@H]1F` [Example 663, 1-{2-[(2S,3S,4S)-2-(3-Chloro-2-fluoro-benzylcarbamoyl)-4-fluoro-3-methoxy-pyrrolidin-1-yl]-2-oxo-ethyl}-1H-pyrazolo[4,3-c]pyridine-3-carboxylic acid amide]: the IC50 was 36 nM.

As to `NC(=O)n1cc(NC(=O)N2CC=C[C@H]2C(=O)Nc2cccc(OC(F)(F)F)c2)c2ccccc21` [Example 145, (S)-2,5-Dihydro-pyrrole-1,2-dicarboxylic acid 1-[(1-carbamoyl-1H-indol-3-yl)-amide] 2-[(3-trifluoromethoxy-phenyl)-amide]], the half-maximal inhibitory concentration (IC50) turned out to be 300 nM.

Regarding `NC(=O)n1cc(NC(=O)N2C[C@H](F)C[C@H]2C(=O)Nc2cc(Br)cc(C(=O)O)c2)c2ccccc21` [Example 159, 3-bromo-5-{[(2S,4R)-1-(1-carbamoyl-1H-indol-3-ylcarbamoyl)-4-fluoro-pyrrolidine-2-carbonyl]-amino}-benzoic acid], the IC50 was found to be 55 nM.

Consider `NC(=O)c1nn(CC(=O)N2[C@@H]3C[C@@H]3C[C@H]2C(=O)Nc2cccc(Br)n2)c2cnccc12` [Example 728, 1-{2-[(1R,3S,5R)-3-(6-bromo-pyridin-2-ylcarbamoyl)-2-aza-bicyclo[3.1.0]hex-2-yl]-2-oxo-ethyl}-1H-pyrazolo[3,4-c] pyridine-3-carboxylic acid amide], for which the IC50 worked out at 8 nM.

On to `NC(=O)n1cc(NC(=O)N2C[C@@H](N)C[C@H]2C(=O)Nc2cccc(OC(F)(F)F)c2)c2ccc(OCc3ccccc3)cc21` [Example 398, (2S,4S)-4-Amino-pyrrolidine-1,2-dicarboxylic acid 1-[(6-benzyloxy-1-carbamoyl-1H-indol-3-yl)-amide]2-[(3-trifluoromethoxy-phenyl)-amide]], for which the IC50 came out at 3050 nM.

Consider `CCc1cc2c(C(N)=O)nn(CC(=O)N3[C@@H]4C[C@@H]4C[C@H]3C(=O)Nc3cccc(Br)n3)c2cn1` [Example 735, 1-{2-[(1R,3S,5R)-3-(6-Bromo-pyridin-2-ylcarbamoyl)-2-aza-bicyclo[3.1.0]hex-2-yl]-2-oxo-ethyl}-5-ethyl-1H-pyrazolo[3,4-c]pyridine-3-carboxylic acid amide], for which the half-maximal inhibitory concentration (IC50) is 3 nM.

With `CC(=O)c1cn(CC(=O)N2C[C@](C)(F)C[C@H]2C(=O)NCc2cccc(Cl)c2F)c2ccccc12` [Example 511, (2S,4R)-1-[2-(3-Acetyl-indol-1-yl)-acetyl]-4-fluoro-4-methyl-pyrrolidine-2-carboxylic acid 3-chloro-2-fluoro-benzylamide], the half-maximal inhibitory concentration (IC50) was determined as 71 nM.

As for `NC(=O)n1cc(NC(=O)N2CC[C@H](F)[C@H]2C(=O)NCc2cccc(Cl)c2)c2ccccc21` [Example 348, 2R,3S)-3-Fluoro-pyrrolidine-1,2-dicarboxylic acid 1-[(1-carbamoyl-1H-indol-3-yl)-amide]2-(3-chloro-benzylamide], the concentration for half-maximal inhibition (IC50) worked out at 200 nM.

Regarding `NC(=O)n1cc(NC(=O)N2C[C@@H](N)C[C@H]2C(=O)NC2CCOc3ccc(Cl)cc32)c2ccccc21` (stereo partly drawn) [Example 80, (2S,4S)-4-Amino-pyrrolidine-1,2-dicarboxylic acid 1-[(1-carbamoyl-1H-indol-3-yl)-amide] 2-[(6-chloro-chroman-4-yl)-amide]], the IC50 turned out to be 15000 nM.

As a reminder, the IC50 is the concentration that inhibits the measured activity by half.
